The test system of the test is gp96 and αL-HA in RAW264.7 cells. Nature of the test: Tunicamycin treatment of RAW264.7 cells, IP and immunoblot. The class given is cell-based. The note with it: 5 μg/ml Tunicamycin.

One substance from patent US20140349944A1, “CHAPERONE-BASED INTEGRIN INHIBITORS FOR THE TREATMENT OF CANCER AND INFLAMMATORY DISEASES” (priority 2013, published 2014) can be followed below.

As for Tunicamycin, where the note is “12 hours (FIG. 1E)”, the “binding of immature ER αL-HA to gp96” value was “reduction in binding to gp96” and the “dimerization of matured cell surface αL-HA with β2-myc” value is “no change”. Where the note is “12 hours, via unfolded protein response”, the gp96 expression entry is listed as “upregulation”.
